Data taken from US20220381783A1, “BIOMARKER” (Oxford University Innovation Limited, priority 2019, published 2022).

Tests used:
[1] = biological target: T1, interaction between TEX264 and TOP1 (Homo sapiens, UniProt P11387); assay: Co-immunoprecipitation of TEX264-FLAG with TOP1; format: cell-based; details: HEK293 cells
T1 construct: FLAG immunoprecipitates prepared from HEK293 cells transiently expressing TEX264WT-FLAG cDNA or EV; expressed in transfected cells; host or cells: HEK293, transiently transfected with pCDNA3.1 TEX264-FLAG
T1 sequence (P11387 2-765 limits assumed): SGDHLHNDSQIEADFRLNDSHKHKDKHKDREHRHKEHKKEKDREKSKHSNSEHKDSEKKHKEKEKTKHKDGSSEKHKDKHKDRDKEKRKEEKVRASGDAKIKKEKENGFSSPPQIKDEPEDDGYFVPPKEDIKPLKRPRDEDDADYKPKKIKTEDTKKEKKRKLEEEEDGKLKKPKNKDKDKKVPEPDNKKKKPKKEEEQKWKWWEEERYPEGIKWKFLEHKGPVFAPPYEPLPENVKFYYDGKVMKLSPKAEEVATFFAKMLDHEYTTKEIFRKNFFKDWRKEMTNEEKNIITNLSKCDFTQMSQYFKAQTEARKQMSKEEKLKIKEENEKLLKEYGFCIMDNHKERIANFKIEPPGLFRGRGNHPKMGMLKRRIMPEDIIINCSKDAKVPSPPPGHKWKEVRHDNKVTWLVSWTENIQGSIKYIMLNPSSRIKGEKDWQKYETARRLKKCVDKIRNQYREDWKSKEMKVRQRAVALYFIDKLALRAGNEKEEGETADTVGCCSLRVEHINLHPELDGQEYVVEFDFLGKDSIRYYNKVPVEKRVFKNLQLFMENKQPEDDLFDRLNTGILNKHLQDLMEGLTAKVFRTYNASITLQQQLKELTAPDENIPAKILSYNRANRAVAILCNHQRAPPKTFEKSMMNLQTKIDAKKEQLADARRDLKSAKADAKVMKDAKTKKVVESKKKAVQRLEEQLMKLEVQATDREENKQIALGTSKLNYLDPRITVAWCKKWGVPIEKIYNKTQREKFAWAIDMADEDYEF
Method: FIG. 2D, FLAG immunoprecipitates prepared from HEK293 cells transiently expressing TEX264WT-FLAG cDNA or EV, treated with CPT (25 nM) or DMSO for 1 hour. FIG. 2E, Immunoblots of anti-Strep-tag immunoprecipitates prepared from wild-type (WT) or ΔTEX264 HEK293 cells expressing p97-Strep-Myc.
FIG. 7G, Immunoblot analysis of TEX264-FLAG immunoprecipitates prepared from HEK293 cells treated with the indicated doses of CPT for 1 hour.
(§2) Cells were lysed in IP lysis buffer (50 mM Tris, pH 7.4, 150 mM NaCl, 1 mM EDTA, 0.5% Triton X-100) or IP denaturing buffer (i.e. IP lysis buffer containing 1% SDS) supplemented with protease and phosphatase inhibitors and incubated on ice for 10 min. Denaturing IPs were quenched with Triton X-100 (to a final concentration of 1%). Chromatin was pelleted by centrifugation for 5 min at 1,000×g and then digested with Benzonase at room temperature in Benzonase buffer (2 mM MgCl2, 50 mM Tris, pH 7.4, 150 mM NaCl). Lysates were incubated with anti-FLAG M2 agarose (Sigma-Aldrich), Strep-Tactin Sepharose (IBA), or GFP-trap agarose (Chromotek) for 1-2 h on a rotator at 4° C., washed three times with IP wash buffer (150 mM NaCl, 50 mM Tris-HC1; 0.5 mM EDTA), and resuspended in 2× Laemmli buffer.

TOP1cc = biological target: T2, TOP1cc (Homo sapiens, UniProt P11387); assay: RADAR assay of TOP1cc accumulation; format: cell-based; details: HEK293 cells, 1 μM CPT for 1 hour, positive control
T2 construct: endogenous in cells; host or cells: HEK293
T2 sequence (P11387 2-765 limits assumed): T1 sequence (P11387 2-765 limits assumed)
Method: Treatment with 1 μM CPT for 1 hour was used as a positive control for TOP1cc induction. Double-stranded (ds)DNA is used as a loading control. […] FIG. 1C, Quantification of Figure 1A (error bars represent mean ±SEM; n=3; ***P<0.001, **P<0.01; Student's t-test).
Cells were grown to ˜70% confluency then lysed in M buffer (MB), containing 6 M guanidine thiocyanate, 10 mM Tris—HCl (pH 6.8), 20 mM EDTA, 4% Triton X-100, 1% N-lauroylsarcosine and 1% dithiothreitol. DNA was precipitated by adding 100% ethanol, then washed three times in wash buffer (20 mM Tris—HC1 pH 7.4, 150 mM NaCl and 50% ethanol), and solubilized in 8 mM NaOH. […] For TOP1ccs, samples were digested with Benzonase for 30 minutes at 37° C. and analysed by slot blot analysis on a Nitrocellulose membrane.
By lysing cells in chaotropic salts (6M guanidium isothiocyanate), detergents (4% Triton X-100 and 1% N-lauroylsarcosine), and a reducing agent (1% DTT), all molecular interactions, other than covalent interactions, are disrupted.

SUMOylated TOP1 = assay: Denaturing immunoprecipitation of YFP-TOP1, SUMO immunoblot; format: cell-based, human; details: HEK293 cells, short treatment with a low dose (25 nM, 1 hour)
Method: FIG. 9A, Immunoblot analysis of SUMO1 & SUMO2/3 after denaturing immunoprecipitation of YFP-TOP1 from HEK293 cells treated or not with CPT (25 nM) for 1 or 24 hours. […] Asterisks indicate SUMOylated TOP1.
as §2

[2] = tested on: metastatic colorectal cancer; details: patients with metastatic colorectal cancer; cited from earlier work
HEK293 cells = assay: Puromycin dose required to kill wild-type cells; format: cell-based, Human
Method: (§1) To generate CRISPR-Cas9 TEX264 knockout cells, two plasmids —a CRISPR/Cas9 KO plasmid containing guide RNA targeting TEX264 (sc-417333), and a homology directed repair plasmid containing a puromycin resistance cassette (sc-417333-HDR)—were purchased from Santa Cruz. 2.5 μg of each plasmid was transfected into early-passage HEK293, HeLa, and U2OS cells using Fugene HD (Promega). After 72 hours, media supplemented with puromycin was added to the cells. The puromycin dose required to kill wild-type cells was determined to be: 1.25 μg/ml for HEK293 cells, 0.6 μg/ml for HeLa cells, and 1 μg/ml for U2OS cells. After 72 hours, the puromycin-containing media was removed and cells were sorted using a cell sorter into single-cell populations on a 96-well plate. TEX264 expression was analysed by immunoblotting. Multiple clones of each cell line showing loss of all detectable TEX264 were selected for subsequent analysis.

HeLa cells = assay: Puromycin dose required to kill wild-type cells; format: cell-based, Human
Method: as §1

U2OS cells = assay: Puromycin dose required to kill wild-type cells; format: cell-based, Human
Method: as §1

[3] = biological target: T3, endogenous p97 of HEK293 cells (human, UniProt P55072 2-806); assay: anti-Strep-tag immunoprecipitation from HEK293 cells, immunoblot (FIG. 10c)
T3 construct: Detected in immunoprecipitates by mass spectrometry or immunoblot; also called AAA ATPase p97
T3 sequence (P55072 2-806 limits assumed): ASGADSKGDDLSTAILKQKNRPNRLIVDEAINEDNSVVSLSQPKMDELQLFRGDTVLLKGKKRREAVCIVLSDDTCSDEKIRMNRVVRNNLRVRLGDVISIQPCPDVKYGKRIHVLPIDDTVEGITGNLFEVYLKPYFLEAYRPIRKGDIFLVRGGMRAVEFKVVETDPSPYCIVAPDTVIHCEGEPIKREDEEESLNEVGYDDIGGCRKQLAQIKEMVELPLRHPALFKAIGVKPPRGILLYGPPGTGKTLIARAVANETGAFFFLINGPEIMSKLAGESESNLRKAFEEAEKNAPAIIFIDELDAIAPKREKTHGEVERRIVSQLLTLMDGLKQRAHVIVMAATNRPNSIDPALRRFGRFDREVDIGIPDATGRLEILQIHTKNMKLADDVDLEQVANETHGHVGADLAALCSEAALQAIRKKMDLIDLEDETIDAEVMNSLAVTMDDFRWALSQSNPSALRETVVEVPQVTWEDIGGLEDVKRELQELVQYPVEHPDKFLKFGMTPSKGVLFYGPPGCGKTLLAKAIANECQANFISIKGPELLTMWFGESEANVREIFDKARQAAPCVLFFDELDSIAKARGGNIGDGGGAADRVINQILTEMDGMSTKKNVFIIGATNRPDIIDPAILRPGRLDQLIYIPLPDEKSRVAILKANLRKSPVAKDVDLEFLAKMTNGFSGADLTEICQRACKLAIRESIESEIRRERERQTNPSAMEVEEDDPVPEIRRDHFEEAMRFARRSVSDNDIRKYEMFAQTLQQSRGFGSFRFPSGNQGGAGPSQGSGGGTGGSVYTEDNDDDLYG
Method: FIG. 10A, Colony forming assay to assess the survival of HeLa cells transfected with the indicated siRNAs following a 24 hour treatment with the indicated doses of CPT. FIG. 10B, Immunoblots to confirm depletion efficacy in A. FIG. 10C, Analysis of anti-Strep-tag immunoprecipitates prepared from HEK293 cells expressing SPRTN-SSH, transfected with the indicated siRNA. FIG. 10D, Total DNA-protein crosslinks (DPCs) isolated by RADAR from HEK293 cells treated with the indicated siRNAs. DPCs were resolved by SDS-PAGE and visualised by silver staining. FIG. 10E, Quantification of FIG. 10D (error bars represent mean ±SD; n=2; **P<0.01; ns, not significant; Student's t-test). FIG. 10F, In vitro TOP1cc repair assay. TOP1ccs were purified by CsCl-gradient centrifugation from HEK293 cells, incubated with the indicated purified proteins (100 nM/reaction), slot-blotted onto a nitrocellulose membrane and probed with a […] -specific antibody.
To explore how TEX264 regulates SPRTN-dependent TOP1cc processing, SPRTN-SSH was immunoprecipitated from wild-type and TEX264-depleted HEK293 cell extracts. […] As p97 exists in hexameric complexes, it can bind multiple cofactors at a time (Buchberger et al., 2015; Hänzelmann et al., 2011). […]

[4] = biological target: T4, TOP1 cleavage complexes purified from HEK293 cells by CsCl-gradient fractionation
T4 chain: T1 sequence (P11387 2-765 limits assumed)

For `CC[C@@]1(O)C(=O)OCc2c1cc1n(c2=O)Cc2cc3ccccc3nc2-1` [CPT, Camptothecin], the “co-immunoprecipitation of TOP1 with p97 or TEX264” value ([1]; 1 μM CPT) was “did not co-immunoprecipitate”, the “interaction between TEX264 and TOP1” value ([1]; CPT 25 nM for 1 hour) was “increased markedly” and the TOP1cc accumulation (TOP1cc) was “substantial TOP1cc accumulation”. The “SUMOylated TOP1, particularly SUMO1” value (SUMOylated TOP1) was “moderate increases”.

For `O=c1[nH]cc(F)c(=O)[nH]1` [FU, fluorouracil], the patient response rates [2] is given as 10-15%.

For `COc1ccc(C[C@H](N)C(=O)N[C@H]2[C@@H](O)[C@H](n3cnc4c(N(C)C)ncnc43)O[C@@H]2CO)cc1` [puromycin], the “puromycin dose required to kill wild-type cells” value (from here on “puromycin dose required”) (HEK293 cells) was 1.25 µg/mL, the “puromycin dose required” value (HeLa cells) was 0.6 µg/mL and the “puromycin dose required” value (U2OS cells) was 1 µg/mL.

B1: SPRTN-SSH expressed in HEK293 cells (enzyme)
chain: MDDDLMLALRLQEEWNLQEAERDHAQESLSLVDASWELVDPTPDLQALFVQFNDQFFWGQLEAVEVKWSVRMTLCAGICSYEGKGGMCSIRLSEPLLKLRPRKDLVETLLHEMIHAYLFVTNNDKDREGHGPEFCKHMHRINSLTGANITVYHTFHDEVDEYRRHWWRCNGPCQHRPPYYGYVKRATNREPSAHDYWWAEHQKTCGGTYIKIKEPENYSKKGKGKAKLGKEPVLAAENKDKPNRGEAQLVIPFSGKGYVLGETSNLPSPGKLITSHAINKTQDLLNQNHSANAVRPNSKIKVKFEQNGSSKNSHLVSPAVSNSHQNVLSNYFPRVSFANQKAFRGVNGSPRISVTVGNIPKNSVSSSSQRRVSSSKISLRNSSKVTESASVMPSQDVSGSEDTFPNKRPRLEDKTVFDNFFIKKEQIKSSGNDPKYSTTTAQNSSSSSSQSKMVNCPVCQNEVLESQINEHLDWCLEGDSIKVKSEESL
notes: also called SPRTN-wt-cSSH; not shown: C-terminal SSH tag (pulled down by anti-Strep-tag)
In the case of B1, the binding result [3] is reported as “binds”, the “in vitro TOP1cc repair assay (slot blot with TOP1cc-specific antibody), SPRTN alone” value [4] is reported as “SPRTN alone could process only a small proportion of TOP1ccs” and the “in vitro TOP1cc repair assay (slot blot with TOP1cc-specific antibody), TOP1ccs pre-incubated with p97 and TEX264” value [4] is reported as “this activity was enhanced when TOP1ccs were pre-incubated with p97 and TEX264 prior to the addition of SPRTN”.
